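Test compounds were applied to cells in 96-well plates for 48 hours at 5 doses. Abbreviation: GI50, concentration required for 50% inhibition of growth. At the TGI there is no net growth.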
Columns and labels:
Test in all cases: DTP human tumour cell line panel, 48 h
OVCAR-8 ovarian = tested on: OVCAR-8 ovarian
NCI/ADR-RES ovarian = tested on: NCI/ADR-RES ovarian
HOP-92 NSCLC = tested on: HOP-92 NSCLC
HCT-15 colon = tested on: HCT-15 colon
ACHN renal = tested on: ACHN renal
HOP-62 NSCLC = tested on: HOP-62 NSCLC
SF-268 CNS = tested on: SF-268 CNS
MDA-MB-435 = tested on: MDA-MB-435
HL-60(TB) leukemia = tested on: HL-60(TB) leukemia
COLO 205 colon = tested on: COLO 205 colon

Row | SMILES | GI50 (OVCAR-8 ovarian) [µM] | TGI (OVCAR-8 ovarian) [µM] | GI50 (NCI/ADR-RES ovarian) [µM] | TGI (NCI/ADR-RES ovarian) [µM] | GI50 (HOP-92 NSCLC) [µM] | TGI (HOP-92 NSCLC) [µM] | GI50 (HCT-15 colon) [µM] | TGI (HCT-15 colon) [µM] | GI50 (ACHN renal) [µM] | TGI (ACHN renal) [µM] | GI50 (HOP-62 NSCLC) [µM] | TGI (HOP-62 NSCLC) [µM] | GI50 (SF-268 CNS) [µM] | TGI (SF-268 CNS) [µM] | GI50 (MDA-MB-435) [µM] | TGI (MDA-MB-435) [µM] | GI50 (HL-60(TB) leukemia) [µM] | TGI (HL-60(TB) leukemia) [µM] | GI50 (COLO 205 colon) [µM] | TGI (COLO 205 colon) [µM]
1 | Oc1ccccc1/C=N/c1nc(-c2ccccc2)cs1 | 42.9 | > 100 | > 100 | > 100 | 8.22 | > 100 | 29.4 | > 100 | 32.2 | > 100 | > 100 | > 100 | 81.1 | > 100 | 29.7 | > 100 | 36 | > 100 | 57.7 | > 100
2 | O=[N+]([O-])C(/C=C(\Cl)[N+](=O)[O-])=C(Nc1ccccc1)Nc1ccccc1 | – | 21.6 | – | 58.5 | – | 14.4 | – | 22.3 | – | 31.9 | – | 4.8 | – | 37.7 | – | 17.4 | – | 14.9 | – | 23.1
3 | CC(C)(C)[C@H]1NC(=O)CN1C(=O)OCc1ccccc1 | – | > 100 | – | > 100 | – | 31.9 | – | > 100 | – | > 100 | – | > 100 | – | > 100 | – | > 100 | – | > 100 | – | > 100
4 | N#Cc1cc2c(n(C3OC(CO)C(O)C(O)C3O)c1=S)CCC2 (stereo not given) | – | > 100 | – | > 100 | – | > 100 | – | > 100 | – | > 100 | – | > 100 | – | > 100 | – | > 100 | – | > 100 | – | > 100
5 | COc1ccc(Nc2nc(N)c(C(=O)c3ccco3)s2)cc1 | – | > 100 | – | > 94.8 | – | > 100 | – | > 100 | – | > 100 | – | > 100 | – | > 100 | – | 16.9 | – | 17.7 | – | > 100
6 | COc1ccc(/C=C2\N=C3N(Cc4ccccc4)C=C(N)N3C2=O)cc1 | – | > 100 | – | > 100 | – | > 100 | – | > 100 | – | > 100 | – | > 100 | – | > 100 | – | > 100 | – | > 100 | – | > 100
7 | CCOC(=O)CSc1nc(-c2ccc(Cl)cc2)c(C#N)c(=O)[nH]1 | – | > 100 | – | > 100 | – | > 100 | – | > 100 | – | > 100 | – | > 100 | – | > 100 | – | > 100 | – | 71.9 | – | > 100
8 | Cc1cc(C)n(C(=CC(=O)C(Cl)Cl)n2nc(C)cc2C)n1 | – | 21.3 | – | 10.7 | – | 24.2 | – | 10.7 | – | 22.3 | – | 17.5 | – | > 100 | – | 11 | – | 18.1 | – | 40
9 | COc1cc2ccc(C(C)NCC#N)cc2cc1OC (stereo not given) | – | > 100 | – | > 100 | – | > 100 | – | > 100 | – | > 100 | – | > 100 | – | > 100 | – | > 100 | – | > 100 | – | > 100
10 | CC[P+](c1ccccc1)(N(C)C)N(C)C | – | > 100 | – | > 100 | – | > 100 | – | > 100 | – | > 100 | – | > 100 | – | > 100 | – | > 100 | – | > 100 | – | > 100
11 | COc1cc2c(cc1OCCN1CCN(CCOc3cc4c(cc3OC)C(=O)N3CCC[C@H]3C=N4)CC1)N=C[C@@H]1CCCN1C2=O | – | > 100 | – | > 100 | – | 4.27 | – | > 100 | – | > 91.6 | – | > 100 | – | > 100 | – | 64.2 | – | > 100 | – | > 90.4
12 | CC(C)(C)c1cc(C(C)(C)C)c2sc(=O)oc2c1O | – | 31.2 | – | 30.1 | – | 30.8 | – | 25.3 | – | 24.8 | – | 33.2 | – | 26.4 | – | 25.6 | – | 19.6 | – | 33.7
13 | Cc1cc(C)nc(NS(=O)(=O)c2ccc(NC(=O)c3ccc4nc5ccccc5c(Nc5ccc(S(=O)(=O)N=C(N)N)cc5)c4c3)cc2)n1 | – | > 100 | – | > 100 | – | > 100 | – | > 100 | – | > 100 | – | > 100 | – | > 100 | – | > 100 | – | > 100 | – | > 100
14 | CCOC(=O)C(NC(=O)c1ccccc1)(Nc1ccc(S(=O)(=O)Nc2cc(C)on2)cc1)C(F)(F)F (stereo not given) | – | > 100 | – | > 100 | – | > 100 | – | > 100 | – | > 100 | – | > 100 | – | > 100 | – | > 100 | – | > 100 | – | > 100
15 | CC1(c2ccc(Cl)cc2)c2ccccc2C(=O)N1CCCN1C(=O)c2ccccc2C1=O (stereo not given) | – | > 100 | – | 76.1 | – | > 100 | – | > 100 | – | > 100 | – | > 100 | – | > 100 | – | > 100 | – | > 100 | – | 36.2
16 | COc1ccccc1-c1cc(=O)c2cccnc2[nH]1 | – | > 100 | – | > 100 | – | 60.2 | – | > 100 | – | > 100 | – | > 100 | – | > 100 | – | 60.5 | – | > 100 | – | 96
17 | CC(C)(C)C(=O)C(N)C(=O)C(C)(C)C | – | > 100 | – | > 100 | – | > 100 | – | > 100 | – | > 100 | – | > 100 | – | > 100 | – | > 100 | – | > 100 | – | > 100
18 | CC(=O)N1CN2C(=O)CCC2c2cc(C)ccc21 (stereo not given) | – | > 100 | – | > 100 | – | > 100 | – | > 100 | – | > 100 | – | > 100 | – | > 100 | – | > 100 | – | > 100 | – | > 100
19 | COc1cc2c(cc1OC)C(C1CC1)ON(C)CC2 (stereo not given) | – | > 100 | – | > 100 | – | > 100 | – | > 100 | – | > 100 | – | > 100 | – | > 100 | – | > 100 | – | > 100 | – | > 100
20 | Cc1cc(C)n(C(C)(C(=O)Cc2ccccc2)n2nc(C)cc2C)n1 | – | > 100 | – | > 100 | – | > 100 | – | > 100 | – | > 100 | – | > 100 | – | > 100 | – | > 100 | – | > 100 | – | > 100

Reference: PubChem BioAssay (NCI)
